Laboratory results taken from US6781015B2, “Aminobenzophenones and photopolymerizable compositions including the same” (Albemarle Corporation, priority 1997, dated 2004).
Where “and” joins values, the source holds several entries; their conditions need not be identical. Equal values may be shown once.

System: Salmonella typhimurium tester strain TA98
Test: Salmonella/Mammalian-Microsome Reverse Mutation Screening Assay (Ames Test)
Assay type: cell-based
Parameters: key to Background lawn: 1 = normal; 2 = slightly reduced; 3 = moderately reduced; 4 = extremely reduced; 5 = absent; 6 = obscured by precipitate; sp = slight precipitate; mp = moderate precipitate (requires hand count); hp = heavy precipitate (requires hand count)
Conditions: for Ames Test outcome (mutagenicity): tester strain TA98 in the presence of S9 mix
Description: Mutagenicity can be measured by a variety of assays. The most commonly used method is the Salmonella/Mammalian-Microsome Reverse Mutation Screening Assay (Ames Test), which commonly uses four or five strains of Salmonella bacteria to detect different types of mutations.
TMMK, TEMK and MEAB were evaluated for the ability to induce reverse mutations at the histidine locus in the genome of a specific Salmonella typhimurium tester strain in the presence of an exogenous metabolic activation system of mammalian microsomal enzymes derived from Aroclor™-induced rat liver (S9). The tester strain used in the mutagenicity assay was Salmonella typhimurium tester strain TA98 with added activation. The assay was conducted using eight doses of the test article, along with the appropriate vehicle and positive controls in the presence of S9 mix (S9 homogenate was purchased from Molecular Toxicology, Inc., Annapolis, Md. 21401, Batch 0646, 43.4 mg of protein per ml). Positive controls were also plated in the absence of S9 mix. All doses of test article, vehicle, and positive controls were plated in triplicate.
The test article TMMK was stored at room temperature. Acetone (CAS# 67-64-1, Fisher Scientific Co., Lot 961140) was used as the vehicle. At 20 mg per ml, which was the most concentrated stock solution which could be prepared, the test article formed a clear, light yellow solution. The test article remained a solution in all succeeding dilutions prepared for the mutagenicity assay. The maximum aliquot of acetone which can be used in the test system is 200 μl. Thus, the maximum concentration which could be tested was 4,000 μg per plate. The test article and vehicle controls were plated using a 200 μl plating aliquot. Positive control articles were plated using 50 μl plating aliquot.
(§1) The test article TEMK was stored at room temperature. Acetone (CAS# 67-64-1, Fisher Scientific Co., Lot 961140) was used as the vehicle. At 100 mg per ml, which was the most concentrated stock solution prepared, the test article formed a clear, yellow solution. The test article remained a solution in all succeeding dilutions prepared for the mutagenicity assay. The test article, vehicle controls and positive control articles were plated using a 50 μl plating aliquot.
as §1, with “MEAB” for “TEMK”, “(CAS#67-64-1,” for “(CAS# 67-64-1,”, “25” for “100”, “clear, light” for “clear,”, “article and” for “article,”, “were plated using a 200 μl plating aliquot. Positive” for “and positive”
The data are presented as individual plate counts along with a mean and standard deviation.

[1] = TA98, rat liver S9, 3.33 μg/plate
[2] = TA98, rat liver S9, 3.33 μg/plate, plates 1-3
[3] = TA98, rat liver S9, 10.0 μg/plate
[4] = TA98, rat liver S9, 10.0 μg/plate, plates 1-3
[5] = TA98, rat liver S9, 33.3 μg/plate
[6] = TA98, rat liver S9, 33.3 μg/plate, plates 1-3
[7] = TA98, rat liver S9, 100 μg/plate
[8] = TA98, rat liver S9, 100 μg/plate, plates 1-3
[9] = TA98, rat liver S9, 333 μg/plate
[10] = TA98, rat liver S9, 333 μg/plate, plates 1-3
[11] = TA98, rat liver S9, 1000 μg/plate
[12] = TA98, rat liver S9, 1000 μg/plate, plates 1-3
[13] = TA98, rat liver S9, 3330 μg/plate
[14] = TA98, rat liver S9, 3330 μg/plate, plates 1-3
[15] = TA98, rat liver S9, 5000 μg/plate
[16] = TA98, rat liver S9, 5000 μg/plate, plates 1-3
[17] = Table 1, TA98, rat liver S9, 3.33 μg/plate
[18] = Table 1, TA98, rat liver S9, 10.0 μg/plate
[19] = Table 1, TA98, rat liver S9, 33.3 μg/plate
[20] = Table 1, TA98, rat liver S9, 100 μg/plate
[21] = Table 1, TA98, rat liver S9, 333 μg/plate
[22] = Table 1, TA98, rat liver S9, 1000 μg/plate
[23] = Table 1, TA98, rat liver S9, 3330 μg/plate
[24] = Table 1, TA98, rat liver S9, 5000 μg/plate
[25] = Table 2 summary, TA98, rat liver S9, 3.33 μg/plate
[26] = Table 2 summary, TA98, rat liver S9, 10.0 μg/plate
[27] = Table 2 summary, TA98, rat liver S9, 33.3 μg/plate
[28] = Table 2 summary, TA98, rat liver S9, 100 μg/plate
[29] = Table 2 summary, TA98, rat liver S9, 333 μg/plate
[30] = Table 2 summary, TA98, rat liver S9, 1000 μg/plate
[31] = Table 2 summary, TA98, rat liver S9, 3330 μg/plate
[32] = Table 2 summary, TA98, rat liver S9, 5000 μg/plate

Structure (SMILES) | Mean revertants per plate [1] | Individual plate counts, revertants per plate [2] | Mean revertants per plate [3] | Individual plate counts, revertants per plate [4] | Mean revertants per plate [5] | Individual plate counts, revertants per plate [6] | Mean revertants per plate [7] | Individual plate counts, revertants per plate [8] | Mean revertants per plate [9] | Individual plate counts, revertants per plate [10] | Mean revertants per plate [11] | Individual plate counts, revertants per plate [12] | Mean revertants per plate [13] | Individual plate counts, revertants per plate [14] | Mean revertants per plate [15] | Individual plate counts, revertants per plate [16] | Background lawn [17] | Background lawn [18] | Background lawn [19] | Background lawn [20] | also measured
CCN(C)c1ccc(C(=O)c2ccc(N(C)CC)cc2)cc1 [MEAB, 4,4′-bis(methylethylamino)benzophenone] | 19 revertants per plate | 21 revertants per plate and 22 revertants per plate and 13 revertants per plate | 21 revertants per plate | 28 revertants per plate and 11 revertants per plate and 25 revertants per plate | 24 revertants per plate | 25 revertants per plate and 24 revertants per plate (2×) | 19 revertants per plate | 18 revertants per plate and 20 revertants per plate (2×) | 24 revertants per plate | 31 revertants per plate and 19 revertants per plate and 21 revertants per plate | 27 revertants per plate | 23 revertants per plate and 21 revertants per plate and 36 revertants per plate | 19 revertants per plate | 14 revertants per plate and 17 revertants per plate and 27 revertants per plate | 24 revertants per plate | 23 revertants per plate (2×) and 27 revertants per plate | 1 | 1 | 1 | 1 sp | Background lawn [21]: 1 mp; Background lawn [22]: 1 mp; Background lawn [23]: 1 hp; Background lawn [24]: 1 hp; Background lawn [25]: 1; Background lawn [26]: 1; Background lawn [27]: 1; Background lawn [28]: 1 sp; Background lawn [29]: 1 mp; Background lawn [30]: 1 mp; Background lawn [31]: 1 hp; Background lawn [32]: 1 hp; Ames Test outcome (mutagenicity): did not cause a positive increase
CCN(CC)c1ccc(C(=O)c2ccc(N(CC)CC)cc2)cc1 [TEMK, 4,4′-bis(diethylamino)benzophenone] | 25 revertants per plate | 22 revertants per plate (2×) and 30 revertants per plate | 25 revertants per plate | 30 revertants per plate and 24 revertants per plate and 20 revertants per plate | 18 revertants per plate | 13 revertants per plate and 23 revertants per plate and 19 revertants per plate | 26 revertants per plate | 28 revertants per plate and 26 revertants per plate and 24 revertants per plate | 19 revertants per plate | 20 revertants per plate and 17 revertants per plate and 19 revertants per plate | 24 revertants per plate | 32 revertants per plate and 23 revertants per plate and 17 revertants per plate | 22 revertants per plate | 27 revertants per plate and 15 revertants per plate and 25 revertants per plate | 22 revertants per plate | 27 revertants per plate and 19 revertants per plate (2×) | 1 | 1 | 1 | 1 | Background lawn [21]: 1 sp; Background lawn [22]: 1 mp; Background lawn [23]: 1 mp; Background lawn [24]: 1 mp; Background lawn [25]: 1; Background lawn [26]: 1; Background lawn [27]: 1; Background lawn [28]: 1; Background lawn [29]: 1 sp; Background lawn [30]: 1 mp; Background lawn [31]: 1 mp; Background lawn [32]: 1 mp; Ames Test outcome (mutagenicity): did not cause a positive increase
Nc1ccc2cc3ccccc3cc2c1 [2-aminoanthracene] | – | – | – | – | – | – | – | – | – | – | – | – | – | – | – | – | – | – | – | – | Background lawn (Table 1, positive control, TA98, rat liver S9, 2.5 μg/plate, in the TMMK, TEMK and MEAB runs): 1; Background lawn (Table 2 summary, positive control, TA98, rat liver S9, 2 5 μg/plate, in the TMMK, TEMK and MEAB runs): 1; Individual plate counts, revertants per plate (positive control, TA98, rat liver S9, 2.5 μg/plate, plates 1-3, in the TMMK, TEMK and MEAB runs): 1053 revertants per plate and 1225 revertants per plate and 1226 revertants per plate and 920 revertants per plate and 932 revertants per plate and 1264 revertants per plate and 1032 revertants per plate and 1133 revertants per plate and 1196 revertants per plate; Mean revertants per plate (positive control, TA98, rat liver S9, 2 5 μg/plate, in the TMMK, TEMK and MEAB runs): 968 revertants per plate and 1143 revertants per plate and 1216 revertants per plate
